Measured values as given in patent US20180050993A1, “NOVEL FLUORINATED DERIVATIVES AS EGFR INHIBITORS USEFUL FOR TREATING CANCERS” (Trillium Therapeutics Inc., priority 2015, published 2018).
Counter-ions that a name gives are not always drawn.

Columns and labels:
Experiment in all cases: NCI screening panel, growth %
Type in all cases: cell-based, human
ACHN = conditions: Renal
Protocol: (§1) After 24 h, two plates of each cell line are fixed in situ with TCA, to represent a measurement of the cell population for each cell line at the time of drug addition (Tz). Experimental drugs are solubilised in dimethyl sulfoxide at 400-fold the desired final maximum test concentration and stored frozen prior to use. At the time of drug addition, an aliquot of frozen concentrate is thawed and diluted to twice the desired final maximum test concentration with complete medium containing 50 μg/ml gentamicin. Additional four, 10-fold or log serial dilutions are made to provide a total of five drug concentrations plus control. Aliquots of 100 μl of these different drug dilutions are added to the appropriate microtiter wells already containing 100 μl of medium, resulting in the required final drug concentrations.
(§2) Following drug addition, the plates are incubated for an additional 48 h at 37° C., 5% CO2, 95% air, and 100% relative humidity. For adherent cells, the assay is terminated by the addition of cold TCA (trichloroacetic acid). Cells are fixed in situ by the gentle addition of 50 μl of cold 50% (w/v) TCA (final concentration, 10% TCA) and incubated for 60 minutes at 4° C. The supernatant is discarded, and the plates are washed five times with tap water and air dried. Sulforhodamine B (SRB) solution (100 μl) at 0.4% (w/v) in 1% acetic acid is added to each well, and plates are incubated for 10 minutes at room temperature. After staining, unbound dye is removed by washing five times with 1% acetic acid and the plates are air dried. Bound stain is subsequently solubilised with 10 mM trizma base, and the absorbance is read on an automated plate reader at a wavelength of 515 nm. For suspension cells, the methodology is the same except that the assay is terminated by fixing settled cells at the bottom of the wells by gently adding 50 μl of 80% TCA (final concentration, 16% TCA). Using the seven absorbance measurements [time zero, […], control growth, (C), and test growth in the presence of drug at the five concentration levels (Ti)], the percentage growth is calculated at each of the drug concentration levels. Percentage growth inhibition is calculated as: [(Ti−Tz)/(C−Tz)]×100 for concentrations in which Ti>/=Tz and [(Ti−Tz)/Tz]×100 for concentrations in which Ti<Tz.
(§3) Three dose response parameters are calculated for each experimental agent. […] The drug concentration resulting in total growth inhibition (TGI) is calculated from Ti=Tz. […] Values are calculated for each of these three parameters if the level of activity is reached. However, if the effect is not reached or is exceeded, the value for that parameter is expressed as greater or less than the maximum or minimum concentration tested.

BT-549 = conditions: Breast
Protocol: as §1, §2, §3

CAKI-1 = conditions: Renal
Protocol: as §1, §2, §3

CCRF-CEM = conditions: Leukemia
Protocol: as §1, §2, §3

EKVX = conditions: NSCLC
Protocol: as §1, §2, §3

HCC-2998 = conditions: Colon
Protocol: as §1, §2, §3

HCT-15 = conditions: Colon
Protocol: as §1, §2, §3

HL-60(TB) = conditions: Leukemia
Protocol: as §1, §2, §3

HOP-62 = conditions: NSCLC
Protocol: as §1, §2, §3

HOP-92 = conditions: NSCLC
Protocol: as §1, §2, §3

HT29 = conditions: Colon
Protocol: as §1, §2, §3

K-562 = conditions: Leukemia
Protocol: as §1, §2, §3

KM12 = conditions: Colon
Protocol: as §1, §2, §3

MALME-3M = conditions: Melanoma
Protocol: as §1, §2, §3

MDA-MB-435 = conditions: Melanoma
Protocol: as §1, §2, §3

MDA-MB-468 = conditions: Breast
Protocol: as §1, §2, §3

NCI-H226 = conditions: NSCLC
Protocol: as §1, §2, §3

NCI-H23 = conditions: NSCLC
Protocol: as §1, §2, §3

NCI-H322M = conditions: NSCLC
Protocol: as §1, §2, §3

NCI-H460 = conditions: NSCLC
Protocol: as §1, §2, §3

NCI-H522 = conditions: NSCLC
Protocol: as §1, §2, §3

NCI/ADR-RES = conditions: Ovarian
Protocol: as §1, §2, §3

OVCAR-3 = conditions: Ovarian
Protocol: as §1, §2, §3

OVCAR-4 = conditions: Ovarian
Protocol: as §1, §2, §3

OVCAR-5 = conditions: Ovarian
Protocol: as §1, §2, §3

SF-268 = conditions: CNS
Protocol: as §1, §2, §3

SF-295 = conditions: CNS
Protocol: as §1, §2, §3

SK-MEL-28 = conditions: Melanoma
Protocol: as §1, §2, §3

SK-OV-3 = conditions: Ovarian
Protocol: as §1, §2, §3

SNB-19 = conditions: CNS
Protocol: as §1, §2, §3

SNB-75 = conditions: CNS
Protocol: as §1, §2, §3

TK-10 = conditions: Renal
Protocol: as §1, §2, §3

U251 = conditions: CNS
Protocol: as §1, §2, §3

UACC-62 = conditions: Melanoma
Protocol: as §1, §2, §3

Compound: Fc1ccc(Nc2ncnc3cc(OCCOC(F)F)c(OCCOC(F)F)cc23)c(F)c1Cl [Compound 2D•HCl, N-(3-chloro-2,4-difluoro-phenyl)-6,7-bis[2-(difluoromethoxy)ethoxy]quinazolin-4-amine]
- Growth % (ACHN): 17.88%
- Growth % (BT-549): 93.32%
- Growth % (CAKI-1): 15.86%
- Growth % (CCRF-CEM): 75.53%
- Growth % (EKVX): 48.49%
- Growth % (HCC-2998): 91.93%
- Growth % (HCT-15): 55.49%
- Growth % (HL-60(TB)): 80.36%
- Growth % (HOP-62): 64.36%
- Growth % (HOP-92): 39.43%
- Growth % (HT29): 58.66%
- Growth % (K-562): 37.37%
- Growth % (KM12): 85.84%
- Growth % (MALME-3M): 73.73%
- Growth % (MDA-MB-435): 56.24%
- Growth % (MDA-MB-468): −39.62%
- Growth % (NCI-H226): 84.65%
- Growth % (NCI-H23): 78.31%
- Growth % (NCI-H322M): −7.70%
- Growth % (NCI-H460): 85.74%
- Growth % (NCI-H522): 24.07%
- Growth % (NCI/ADR-RES): 54.63%
- Growth % (OVCAR-3): 60.72%
- Growth % (OVCAR-4): 0.00%
- Growth % (OVCAR-5): 26.63%
- Growth % (SF-268): 70.93%
- Growth % (SF-295): 76.73%
- Growth % (SK-MEL-28): 81.10%
- Growth % (SK-OV-3): −13.36%
- Growth % (SNB-19): 75.78%
- Growth % (SNB-75): 57.99%
- Growth % (TK-10): 34.04%
- Growth % (U251): 72.65%
- Growth % (UACC-62): 82.70%
